Measurements: ChEMBL document CHEMBL1201862, “PubChem BioAssay data set” (2004)
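Tested at 5 concentrations; 48 h exposure; 96-well plates; endpoints linearly interpolated, else capped at highest concentration. Abbreviation: GI50, concentration required for 50% inhibition of growth.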 Activity calls are given as the source filed them. Rule as the data show it: active = GI50 up to about 1.1 µM and inactive = higher.

What was measured:
Test in all cases: growth of human tumour cells (NCI), 48 h
[1] = tested on: HCC 2998
[2] = tested on: OVCAR-3
[3] = tested on: LOX IMVI
[4] = tested on: M14
[5] = tested on: SF-539
[6] = tested on: ACHN
[7] = tested on: NCI-H23
[8] = tested on: Malme-3M
[9] = tested on: SF-268
[10] = tested on: SNB-75
[11] = tested on: A498
[12] = tested on: U-251
[13] = tested on: NCI-H460
[14] = tested on: HL-60
[15] = tested on: RXF 393
[16] = tested on: SR

Measured: GI50

O=c1c2cc(Br)ccc2[nH]c(=S)n1-c1ccccc1
inactive: [1] > 100 µM | [2] > 100 µM | [3] > 100 µM | [4] > 100 µM | [5] > 100 µM | [6] > 100 µM | [7] > 100 µM | [8] > 100 µM | [9] > 100 µM | [10] > 100 µM | [11] > 100 µM | [12] > 100 µM | [13] > 100 µM

COc1ccc(-c2c(N)[n+]([O-])c3cc(C)c(C)cc3[n+]2[O-])cc1OC
inactive: [1] > 100 µM | [2] > 100 µM | [3] > 100 µM | [4] 55.6 µM | [5] 33.9 µM | [6] > 100 µM | [7] 34 µM | [8] > 100 µM | [9] 43.8 µM | [10] 36.4 µM | [11] > 100 µM | [14] 46.3 µM | [12] 67.3 µM | [13] > 100 µM

CN(CC(=O)O)S(=O)(=O)c1ccc2ccccc2c1
inactive: [1] > 100 µM | [2] > 100 µM | [3] > 100 µM | [4] > 100 µM | [5] > 100 µM | [6] > 100 µM | [7] > 100 µM | [8] > 100 µM | [9] > 100 µM | [15] > 100 µM | [10] > 100 µM | [11] > 100 µM | [14] > 100 µM | [12] > 100 µM | [13] > 100 µM

CCOC(=O)NC(=O)c1cn(C(CC)COC(=O)NCCCCCCNC(=O)OCC(CC)n2cc(C(=O)NC(=O)OCC)c(=O)[nH]c2=O)c(=O)[nH]c1=O (stereo not given)
inactive: [1] > 100 µM | [2] > 100 µM | [3] > 100 µM | [4] > 100 µM | [6] > 100 µM | [8] > 100 µM | [9] > 100 µM | [15] > 100 µM | [10] > 100 µM | [11] > 100 µM | [14] > 100 µM | [12] > 100 µM | [13] > 100 µM

COc1ccc2ccc3c(c2c1)CN1CCc2cc(OC)c(OC)cc2C1C3 (stereo not given)
inactive: [1] > 100 µM | [2] > 100 µM | [3] > 100 µM | [4] > 100 µM | [5] > 100 µM | [6] > 100 µM | [7] > 100 µM | [8] > 100 µM | [10] 28.1 µM | [16] > 100 µM | [14] > 100 µM | [12] > 100 µM | [13] > 100 µM

[O-][S+]1c2ccccc2N=C(c2ccc3ccccc3c2)CC1C1=CC=CCC1 (stereo not given)
inactive: [1] 13.1 µM | [2] 16.9 µM | [3] 15.4 µM | [4] 18.7 µM | [5] 21.9 µM | [6] 19 µM | [7] 14.6 µM | [8] 27.4 µM | [9] 25.8 µM | [15] 16.8 µM | [10] 17.9 µM | [14] 17.6 µM | [13] 20.3 µM

C=C(C)CC(C)(c1cc2ccccc2n1C)N1CCOCC1 (stereo not given)
inactive: [1] > 100 µM | [2] 66.5 µM | [3] > 100 µM | [4] 70 µM | [5] > 100 µM | [6] 62.2 µM | [7] 55.1 µM | [8] > 100 µM | [9] 41.5 µM | [15] 65.5 µM | [10] > 100 µM | [16] 69 µM | [14] 57 µM | [13] 60.8 µM
